Experimental data from patent US9980943B2, “Methods of treating muscular dystrophy” (BOARD OF REGENTS OF THE NEVADA SYSTEM OF HIGHER EDUCATION, …, priority 2013, dated 2018).

Assays:
Assay type in all cases: cell-based, mouse
[1] = test system: α7 integrin (LacZ reporter in α7βgal+/− myoblasts); assay: Myoblast α7+/LacZ integrin FDG assay (Burkin assay in myoblasts, 96-well); conditions: α7+/LacZ myoblasts, 96-well
[2] = test system: α7 integrin (LacZ reporter in α7+/LacZ myotubes); assay: Myotube α7 integrin FDG assay (Burkin assay in myotubes, 96-well); conditions: myotubes
[3] = test system: β-galactosidase in CMV-LacZ C2C12 myoblasts; assay: CMV-LacZ secondary screen in C2C12 myoblasts (β-Gal stabilizing assay); conditions: CMV-LacZ C2C12 myoblasts
Procedure, shortened: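 C2C12 myoblasts stably carrying a linearized CMV-driven LacZ construct, clone chosen by β-gal level in the myoblast FDG assay. Compounds tested in 96-well dose-response at 0.5, 1, 5, 10, 20 and 40 μM, N=2 replicates per point, to detect β-gal stabilization.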

[4] = test system: β-galactosidase in CMV-LacZ C2C12 myotubes; assay: CMV-LacZ secondary screen in C2C12 myotubes (β-Gal stabilizing assay); conditions: C2C12 CMV-LacZ myotubes, fold relative to DMSO
Procedure, shortened: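 β-gal stabilization was measured in C2C12 myoblasts or myotubes stably transfected with a CMV-driven LacZ construct, using the FDG β-gal assay. Compounds were tested in dose-response at 0.5, 1, 5, 10, 20 and 40 μM, with two replicates per point.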

| Compound | Burkin Assay in Myoblasts, signal relative to DMSO ([1]; 0.5 uM) | Burkin Assay in Myoblasts, signal relative to DMSO ([1]; 1 uM) | Burkin Assay in Myoblasts, signal relative to DMSO ([1]; 5 uM) | Burkin Assay in Myoblasts, signal relative to DMSO ([1]; 10 uM) | Burkin Assay in Myoblasts, signal relative to DMSO ([1]; 20 uM) | Burkin Assay in Myoblasts, signal relative to DMSO ([1]; 40 uM) | Burkin Assay in Myotubes, α7 integrin LacZ reporter signal relative to DMSO ([2]; 0.5 uM) | Burkin Assay in Myotubes, α7 integrin LacZ reporter signal relative to DMSO ([2]; 1 uM) | Burkin Assay in Myotubes, α7 integrin LacZ reporter signal relative to DMSO ([2]; 5 uM) | Burkin Assay in Myotubes, α7 integrin LacZ reporter signal relative to DMSO ([2]; 10 uM) | Burkin Assay in Myotubes, α7 integrin LacZ reporter signal relative to DMSO ([2]; 20 uM) | Burkin Assay in Myotubes, α7 integrin LacZ reporter signal relative to DMSO ([2]; 40 uM) | CMV-LACZ in Myoblasts (β-galactosidase activity relative to DMSO) ([3]; 0.5 uM) | CMV-LACZ in Myoblasts (β-galactosidase activity relative to DMSO) ([3]; 1 uM) | CMV-LACZ in Myoblasts (β-galactosidase activity relative to DMSO) ([3]; 5 uM) | CMV-LACZ in Myoblasts (β-galactosidase activity relative to DMSO) ([3]; 10 uM) | CMV-LACZ in Myoblasts (β-galactosidase activity relative to DMSO) ([3]; 20 uM) | CMV-LACZ in Myoblasts (β-galactosidase activity relative to DMSO) ([3]; 40 uM) | CMV-LACZ in Myotubes, signal relative to DMSO ([4]; 0.5 uM) | CMV-LACZ in Myotubes, signal relative to DMSO ([4]; 1 uM) | other results |
| --- | --- | --- | --- | --- | --- | --- | --- | --- | --- | --- | --- | --- | --- | --- | --- | --- | --- | --- | --- | --- | --- |
| Cc1cccc(Cn2cnc3c(nnn3Cc3ccc(Cl)cc3)c2=O)c1 [MLS000092785-01] | 0.9544 | 1.035 | 1.1703 | 0.9343 | 0.7833 | 0.6509 | 1.027 | 0.9662 | 1.02 | 0.8586 | 0.8293 | 0.8225 | 0.8600 | 1.1653 | 0.9882 | 0.7351 | 1.1004 | 0.3235 | 0.9105 | 1.0143 | CMV-LACZ in Myotubes, signal relative to DMSO ([4]; 5 uM): 1.0185; CMV-LACZ in Myotubes, signal relative to DMSO ([4]; 10 uM): 1.0738; CMV-LACZ in Myotubes, signal relative to DMSO ([4]; 20 uM): 1.0400; CMV-LACZ in Myotubes, signal relative to DMSO ([4]; 40 uM): 1.0500 |
| N#Cc1ccc(Sc2nc3ccccc3[nH]2)cc1C#N [MLS000110418-01] | 1.3095 | 1.079 | 1.249 | 1.12 | 1.004 | 0.8889 | 1.073 | 1.0975 | 1.017 | 0.943 | 0.9939 | 0.8855 | 0.8871 | 0.9989 | 1.0913 | 0.9455 | 0.8926 | 0.7141 | 1.0333 | 0.9000 | CMV-LACZ in Myotubes, signal relative to DMSO ([4]; 5 uM): 0.9617; CMV-LACZ in Myotubes, signal relative to DMSO ([4]; 10 uM): 0.9599; CMV-LACZ in Myotubes, signal relative to DMSO ([4]; 20 uM): 1.0459; CMV-LACZ in Myotubes, signal relative to DMSO ([4]; 40 uM): 1.3647 |
| CCCS(=O)(=O)c1nc(S(=O)(=O)c2ccc(C)cc2)c(N2CCCC2)s1 [MLS000113985-01] | 1.065 | 1.018 | 0.7898 | 0.4804 | 0.1779 | 0.122 | 0.9882 | 1.037 | 0.9919 | 0.9925 | 0.7655 | 0.6679 | 0.9809 | 1.0049 | 1.0836 | 0.9187 | 0.2126 | 0.1841 | 1.0629 | 1.0638 | CMV-LACZ in Myotubes, signal relative to DMSO ([4]; 5 uM): 1.0031; CMV-LACZ in Myotubes, signal relative to DMSO ([4]; 10 uM): 1.0241; CMV-LACZ in Myotubes, signal relative to DMSO ([4]; 20 uM): 1.0541; CMV-LACZ in Myotubes, signal relative to DMSO ([4]; 40 uM): 1.0482 |
